Data as given in US4833155A, “3-(ω-(3,5,-di-t-butyl-4-hydroxyphenyl)-alkanoyl)pyrroles, and anti-inflammatory uses thereof” (Syntex (U.S.A.) Inc., priority 1986, dated 1989).
Where “and” joins values, the source holds several entries; their conditions need not be identical. Equal entries are not always repeated.

Key:
[1] = test system: phenylquinone-induced writhing; experiment: Phenylquinone-Induced Mouse Writhing Assay "PI" (cyclooxygenase-inhibition activity); format: in vivo
Experimental: Cyclooxygenase-inhibition activity is determined by the Phenylquinone-Induced Mouse Writhing "PI" Assay, as is well accepted in the art. A modification of the assay described by Hendershot, et al., supra., is performed as follows:
Phenylquinone solution is prepared as follows: 4 mg of phenylquinone is dissolved in 0.5 ml of absolute ethanol, after which 19.5 ml of warmed distilled water is added. When properly prepared, all of the phenylquinone solution remains in solution. The solution is used soon after preparation.
The test materials are administered in 0.2 ml of an aqueous vehicle at hour 0 to groups of eight male Swiss-Webster (Simonsen) mice weighing about 18-20 g. At either twenty (20 ) minutes or one hundred twenty (120) minutes later, 0.25 ml of a 0.02% solution of phenylquinone is injected into each animal, to induce writhing. The animals are then observed for the next ten (10) minutes for writhing responses, and the number of writhes per animal is recorded. The mean number of writhes is calculated for each treatment group and the results are expressed as percent inhibition of writhing responses relative to a control group receiving vehicle alone.

[2] = test system: carrageenan-induced rat paw inflammation; experiment: Carrageenan-Induced Rat Paw Inflammation Assay "CI"; format: in vivo; conditions: oral
Experimental: Anti-inflammatory activity is determined by the Carrageenan-Induced Rat Paw Inflammation "CI" Assay, as is well accepted in the art. A modification of the assay described by Winter, et al., supra., is performed as follows:
Female albino rats (Sim: (SD)fbr) weighing 80-90 g receive the test materials orally in 1 ml aqueous solution at hour 0. One hour later (hr 1) 0.05 ml of a 1% solution (in aqueous 0.9% NaCl) of carrageenan is injected into the right hind paw to inflame the paw. The rats are sacrificed at hour 4, at which time both hind paws are removed and individually weighed. The percent increase in the weight of the inflamed paw over that of the opposite non-inflamed paw is calculated, and the results are reported according to the formula: [formula]

[3] = test system: arachidonic acid-induced mouse ear edema; experiment: Arachidonic Acid-Induced Mouse Ear Edema Assay "AAI"; format: in vivo; conditions: topical
Experimental: Topical anti-inflammatory activity is determined by the Arachidonic Acid-Induced Mouse Ear Edema "AAI" Assay, as is well accepted in the art. A modification of the assay described by Young, et al., supra., is performed as follows:
The test materials are prepared as solutions in acetone and applied to the right ears of mice, in groups of eight (8), at hour 0. At hour 1, 2 mg of arachidonic acid in acetone solution is applied to the right ears of the mice to induce an inflammatory response. The left ears of these animals serves as negative controls. At hour 2 the mice are sacrificed; their ears are removed and 8 mm diameter full thickness plugs are cut from the tip of each ear. The plugs are weighed and the mean right and left plug weights are calculated for each group. The results are expressed as percent inhibition of ear plug weight increase relative to a positive control group receiving only acetone at hour 0.

[4] = test system: adjuvant-induced arthritis (heat-killed Mycobacterium butyricum), hind paw weight increase; experiment: Adjuvant-Induced Arthritis Assay "AI"; format: in vivo; conditions: rat, oral, day 18
Experimental: Anti-inflammatory activity is determined by the Adjuvant-Induced Arthritis ("AI") Assay, as is well accepted in the art. A modification of the assay described by Pearson, et al., supra., is performed as follows: Female Hla:(SD) BR rats weighing 160-180 g are randomly distributed to treatment groups of 12 animals, and given food and water ad libitum. Test materials are prepared fresh weekly as suspensions in carboxymethyl cellulose. The test animals are orally dosed with the suspensions in volumes of 1 ml twice per day Monday through Friday, and with 2 ml once per day on Saturdays and Sundays. […] At time 0, rats are injected intradermally in the proximal quarter of the tail with 0.1 ml of a mineral oil suspension of heat-killed Mycobacterium butyricum (Difco) at a concentration of 10 mg/ml. On day 18 the intensity of swelling in the four paws and tail is estimated visually and scored (0-4 for paws, 0-3 for tail) such that the total maximum score, indicating intense swelling of all four paws and tail, is 19. The animals are then sacrificed; the hind paws of each animal are removed and weighed. The percent inhibition is calculated by comparing the weight increase of the hind paws of the test animals versus the control animals.

[5] = test system: lipoxygenase in human polymorphonuclear leukocytes; experiment: Human Polymorphonuclear Leukocyte Assay "HPMN" (lipoxygenase inhibition); format: cell-based; conditions: dose 36.0 μg
Experimental: Lipoxygenase inhibition activity is determined in vitro by the Human Polymorphonuclear Leukocyte ("HPMN") Assay, as is well accepted in the art. A modification of the assay described by Radmark, et al., supra., is performed as follows:
1. Preparation of the cells: The HPMNs are prepared from 200-300 ml of heparinized blood of healthy donors not receiving any medication for at least 7 days, using Ficol-Hypaque gradients. In general, HPMNs are greater than 90% pure and their viability is assessed by dye-exclusion to be better than 95%. The cells are suspended in phosphate buffered saline containing 1.0 mM CaCl2 (PH 7.4) and 0.1% ovalbumin, and used within 30 minutes.
2. Lipoxygenase Assay: Incubations are carried out at 37° C. for 5 minutes in a total volume of 0.2 ml arachidonic acid 1-C^14 (1×10^-4 M unless otherwise indicated, and approximately 300,000 cpm) is added to a suspension of cells (ca 5×10^6) to initiate the reaction. […]
1.6 Ml of deionized water is added, vortexed, and centrifuged. […] The eluates are collected in scintillation vials and 1.0 ml aliquot from each of the two fractions are counted for radioactivity in a Packard liquid scintillation counter. From the radioactivity data thus obtained percent yields of total lipoxygenase products in blanks, controls and drug-containing tubes are calculated as well as percent inhibition by the test compounds.

[6] = Isomura et al., Chem. Pharm. Bull. 32(1): 152-165 (1984); cited from earlier work
[7] = phenylquinone 20 min after dose, 5.0 mg/kg
[8] = phenylquinone 20 min after dose, 15.0 mg/kg
[9] = phenylquinone 120 min after dose, 15.0 mg/kg

SMILES: CC(C)(C)c1cc(C(=O)c2cc[nH]c2)cc(C(C)(C)C)c1O [A, 3-(3,5-di-t-butyl-4-hydroxybenzoyl)pyrrole]
- Inhibition (PI), writhing responses ([1]; phenylquinone 20 min after dose, 0.1 mg/kg): 15%
- Inhibition (PI), writhing responses ([1]; phenylquinone 20 min after dose, 1.0 mg/kg): 61%
- Inhibition (PI), writhing responses ([1]; phenylquinone 20 min after dose, 1.5 mg/kg): 100%
- Inhibition (PI), writhing responses [1, 7]: 99%
- Inhibition (PI), writhing responses [1, 8]: 97% and 96%
- Inhibition (PI), writhing responses [1, 9]: 100%
- Inhibition (CI) ([2]; dose 1.0 mg/kg): 24%
- Inhibition (CI) ([2]; dose 10.0 mg/kg): 44%
- Inhibition (AAI), ear plug weight increase ([3]; dose 0.5 mg/ear): 49%
- Inhibition (AAI), ear plug weight increase ([3]; dose 1.0 mg/ear): 62%
- Inhibition (AAI), ear plug weight increase ([3]; dose 2.0 mg/ear): 67% and 69%
- inhibition of hind paw weight increase ([4]; daily dose 0.4 mg/kg): 54%
- inhibition of hind paw weight increase ([4]; daily dose 2.0 mg/kg): 70%

SMILES: CC(C)(C)c1cc(C(=O)c2ccc[nH]2)cc(C(C)(C)C)c1O [B, 2-(3,5-di-t-butyl-4-hydroxybenzoyl)pyrrole, reference compound]
- Inhibition (PI), writhing responses [1, 7]: 26%
- Inhibition (PI), writhing responses [1, 8]: 40% and 52% and 65%
- Inhibition (PI), writhing responses ([1]; phenylquinone 20 min after dose, 50.0 mg/kg): 56% and 38%
- Inhibition (PI), writhing responses [1, 9]: 49%
- Inhibition (CI) ([2]; dose 100.0 mg/kg): 30%
- Inhibition (AAI), ear plug weight increase ([3]; dose 2.0 mg/ear): 22%
- Inhibition (HPMN), total lipoxygenase products [5]: 50%

SMILES: Cc1[nH]ccc1-c1cc(C(C)(C)C)c(O)c(C(C)(C)C)c1 [Formula VIII]
- anti-inflammatory activity as reported [6]: inactive
